From patent US8338410B2, “Neuroprotective compounds and pharmaceutical compositions comprising them” (Biocodex, priority 2005, dated 2012)

How the values were obtained:
[1] = test system: mice subjected to hypobaric hypoxia; assay: Hypobaric hypoxia in mice (survival time); assay type: in vivo, NMRI male mice; conditions: mice; for Percentage variation / Survival time in seconds (m ± sem): hypobaric hypoxia 160 mmHg
Protocol: 1.1 Hypobaric Hypoxia in Mice
NMRI male mice from Janvier weighing between 25 and 30 grams were used after acclimatisation in the animal house for at least 7 days (t°=22±2° C.; humidity 50±20%; feed UAR “A04” SAFE (Augy, France) and tap water ad libitum; 12 hour night and day cycle (light from 7 a.m. to 7 p.m.).
The unfasting […] were distributed at random into lots of 10.
The protocol of Nakaniski et al. (1973) Life Sciences, 13, 467-474 was adapted for the purposes of the model.
Each mouse was placed in a dessicator (hermetically sealed enclosure) in which atmospheric pressure was reduced from 760 to 160 mmHg using a water pump. This pressure reduction was carried out in one minute and caused death of the control animals in approximately 1 minute.
The survival time of the animal, which corresponded to the difference between the time to death of the mouse assessed by respiratory arrest less the time required to induce the hypoxia was then noted.
The products under investigation were administered intraperitoneally (i.p.) (0.1 ml/10 g), 30 minutes before inducing hypobaric hypoxia, or orally (0.1 ml/10 g p.o.) 1 hour before hypoxia.
Etifoxine hydrochloride was dissolved in 1% Tween 80. The potassium cyanide (Merck) was dissolved in 0.9% NaCl.
The statistical test used was a one-factor analysis of variance to determine the treated groups, which differed from the control group receiving the vehicle, at a threshold of 5%.

[2] = test system: rats subjected to histotoxic hypoxia induced by potassium cyanide; assay: KCN (i.v.) hypoxia in rats (survival time); assay type: in vivo, Wistar male rats; conditions: rats, KCN 4 mg/kg i.v.

## CCNC1=Nc2ccc(Cl)cc2C(C)(c2ccccc2)O1.Cl (centres unmarked) [etifoxine, 6-chloro-2-ethylamino-4-methyl-4-phenyl-4H-[3,1]benzoxazine hydrochloride]
[1]; i.p. 3 mg/kg
  Percentage variation: +12%
  Survival time in seconds (m ± sem): 64.5 ± 3.4 s
[1]; i.p. 10 mg/kg
  Percentage variation: +15%
  Survival time in seconds (m ± sem): 66.1 ± 3.0 s
[1]; i.p. 30 mg/kg
  Percentage variation: +42%
  Survival time in seconds (m ± sem): 81.8 ± 4.6 s
[1]; i.p. 50 mg/kg
  Percentage variation: +141%
  Survival time in seconds (m ± sem): 138.5 ± 23.3 s
[1]; i.p. 75 mg/kg
  Percentage variation: +130%
  Survival time in seconds (m ± sem): 132.0 ± 21.6 s
[1]; p.o. 30 mg/kg
  Percentage variation: +47%
  Survival time in seconds (m ± sem): 81.5 ± 4.5 s
[1]; p.o. 100 mg/kg
  Percentage variation: +72%
  Survival time in seconds (m ± sem): 95.3 ± 5.6 s
[1]; p.o. 200 mg/kg
  Percentage variation: +79%
  Survival time in seconds (m ± sem): 99.5 ± 2.7 s
[1]; p.o. 300 mg/kg
  Percentage variation: +108%
  Survival time in seconds (m ± sem): 115.5 ± 8.6 s
[1]; hypobaric hypoxia, over 30 mg/1 kg i.p. or p.o.
  time to death: significantly increased the time to death
[2]; compound i.p. dose 30
  Percentage variation: +7%
  Survival time in seconds (m ± sem): 60.3 ± 2.0 s
[2]; compound i.p. dose 50
  Percentage variation: +90%
  Survival time in seconds (m ± sem): 107.3 ± 6.1 s
[2]; compound i.p. dose 75
  Percentage variation: +155%
  Survival time in seconds (m ± sem): 144.3 ± 11.5 s
[2]; compound p.o. dose 50
  Percentage variation: +7%
  Survival time in seconds (m ± sem): 59.5 ± 2.1 s
[2]; compound p.o. dose 100
  Percentage variation: +8%
  Survival time in seconds (m ± sem): 60.1 ± 1.2 s
[2]; compound p.o. dose 200
  Percentage variation: +15%
  Survival time in seconds (m ± sem): 63.9 ± 2.0 s
[2]; from 50 mg/kg i.p. and 200 mg/kg p.o.
  time to death: significantly increased the time to death
